From patent US9884863B2, “STAT3 inhibitor” (Board of Regents, The University of Texas System, priority 2013, dated 2018) come the findings set out here.

One data set concerns AsPC1. As to the kind of experiment: MTS cell proliferation assay, AsPC1. The settings on record: Homo sapiens, ASPC1, 72 h, read-out: IC50 AsPC1 (Table 4). The class given is cell-based, human. In short, it runs like this:
(§1)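 Cells seeded at 2×10^3 cells/well and exposed 72 h to DMSO or 0.01–100 μM STAT3 inhibitor, quadruplicate wells per concentration. Proliferation read by MTS reduction, OD 550 nm after 1 h at 37 °C.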
In general terms: Tetrazolium dyes change colour on reduction, which living cells bring about.

Data set [1] deals with MDA-MB-231 xenograft tumors. Kind of data set: MDA-MB-231 xenograft tumor growth in nude mice. The note with it: oral gavage daily for 14 days. The class given is in vivo.
For a further data set, the system named is MCF-7. Kind of data set: MTS cell proliferation assay, MCF-7. The class given is cell-based, human. The settings on record: Homo sapiens, MCF7, 72 h, read-out: IC50 MCF-7 (Table 4). In short, it runs like this:
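MCF-7 human breast cancer cells were exposed to test compounds at a range of concentrations, then proliferation was measured with the MTS reagent from Promega's CellTiter 96 AQueous Non-Radioactive Cell Proliferation Assay kit. After 1 hr at 37° C., OD at 550 nm was read on a 96-well iMark Microplate Absorbance Reader, with quadruplicate wells per concentration.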

The subject of data set [2] is MDA-MB-231 and MDA-MB-468 cells. As to the kind of experiment: Colony formation assay. The data set is classed as cell-based, human. The settings on record: 15 days, starting at 0.625 μM. How it is done: Colony Formation Assay: MDA-MB-468 and MDA-MB-231 cells were seeded in 6-well plates with a density of 800-3000 cells/well, respectively. […] The culture media with the compounds were changed every 72 h. After two weeks, the wells were washed twice with PBS buffer and 2 mL of 0.01% crystal violet staining buffer was added and incubated for 10 min. The wells were then washed with PBS for 5 min for three times, and allowed to dry. Photographs were then taken and the density of the entire culture well area was digitally measured using the GelCount™ instrument (Oxford Optronix, UK). Experiments were performed in triplicate and the density data were analyzed with one-way ANOVA using GraphPad Prizm 6 software. Error bars represent standard deviation.

A further data set deals with Panc-1. As to the kind of experiment: MTS cell proliferation assay, Panc-1. The class given is cell-based, human. The settings on record: Homo sapiens, PANC-1, 72 h, read-out: IC50 Panc-1 (Table 4). In short, it runs like this:
as §1

The subject of data set [3] is STAT3 and pSTAT3 in MDA-MB-231 xenograft tumors. Kind of data set: IHC and Western blot of xenograft tumors. The data set is classed as in vivo, mice. The note with it: oral gavage 14 days. The text has this: Immunohistochemistry (IHC): Paraffin blocks of the collected tissue were sectioned into 4 μm thickness and stained with H&E as a reference. All slides were subjected to phospho-STAT3 (Y705) IHC with ABC staining method. Rabbit or mouse IgG ABC kit was purchased from Vector Laboratories (Burlingame, Calif., USA) and ABC staining reagents were purchased from Sigma Aldrich (Louis, Mo., USA). PBS was used instead of primary antibody as a negative control.

Data set [4] is classed as in vivo. The note with it: oral gavage 14 days; HJC0152 25 mg/kg, niclosamide 75 mg/kg.
Protocol: Female nude mice at 4 to 6 wk of age were obtained from MDACC ERO facility. The mice were maintained in a barrier unit with 12 hours light-dark switch room and all materials were autoclaved. Freshly harvested MDA-MB-231 cells (2.5×10^6 cells per mouse, resuspended in 100 μl PBS) were injected into the 3rd mammary fat pad of the mice, and then mice were randomly assigned into control and treatment groups (≧6 mice per group). Treatment started when the xenograft mammary tumors reaches a volume of 200 mm^3. […] Mice were monitored daily for general health conditions (body weight, fur coat condition and posture) and toxicity (hair loss, skin rash, abdominal distension). […] Tumor volume was calculated as V=W^2×L/2, where L=longer diameter (mm) and W=width of short diameter (mm). […]
Female nude mice were obtained from MDACC and were used for orthotopic tumor studies at 4 to 6 weeks of age. […] Body weights and tumors volume were measured daily and tumor volume was calculated according to the formula V=0.5×L×W^2, where L=length (mm) and W=width (mm).
Twenty-two female nude mice (8 wks of age) were obtained from MDACC ERC Center. […] Body weights and tumors volume were measured daily and tumor volume calculated using the formula V=0.5×L×W^2, where L=length (mm) and W=width (mm) of xenograft tumors. Signs of toxicity were recorded individually. […]

Usually IC50 stands for the concentration that inhibits the measured activity by half.

SMILES strings stand for the structures.

Regarding `O=C(Nc1ccc([N+](=O)[O-])cc1Cl)c1cc(Cl)ccc1O` [niclosamide, reference compound], the figures for the IC50 with AsPC1, with MCF-7 and with Panc-1 were 1470 nM, 1060 nM and 1730 nM, respectively. Also, the “reduction in tumor growth, 75 mg/kg” value in data set [1] is given as 55%. Besides, in data set [2], the colony formation entry is reported as “significant suppression of colony formation”. Besides, the “STAT3 and pSTAT3 (Y705 and S727) in tumor lysates, Western blot” value in data set [3] is reported as “decreased”. Besides, the “toxicity signs in treated mice” value in data set [4] is “No toxicity signs”.
